Test results as given in patent publication US10858339B2, “Aryl cyclopropyl-amino-isoquinolinyl amide compounds” (priority 2017, dated 2020).
pIC50, pKi: −log10 of the molar value. Counter-ions that a name gives are not always drawn. Like-named read-outs stand apart in the source and are kept apart here.

Experiments:
JAK3 = biological target: T1, JAK3 (Homo sapiens, UniProt P52333); test: JAK kinase assay, JAK3 enzyme; assay type: biochemical
T1 sequence (P52333 1-1124): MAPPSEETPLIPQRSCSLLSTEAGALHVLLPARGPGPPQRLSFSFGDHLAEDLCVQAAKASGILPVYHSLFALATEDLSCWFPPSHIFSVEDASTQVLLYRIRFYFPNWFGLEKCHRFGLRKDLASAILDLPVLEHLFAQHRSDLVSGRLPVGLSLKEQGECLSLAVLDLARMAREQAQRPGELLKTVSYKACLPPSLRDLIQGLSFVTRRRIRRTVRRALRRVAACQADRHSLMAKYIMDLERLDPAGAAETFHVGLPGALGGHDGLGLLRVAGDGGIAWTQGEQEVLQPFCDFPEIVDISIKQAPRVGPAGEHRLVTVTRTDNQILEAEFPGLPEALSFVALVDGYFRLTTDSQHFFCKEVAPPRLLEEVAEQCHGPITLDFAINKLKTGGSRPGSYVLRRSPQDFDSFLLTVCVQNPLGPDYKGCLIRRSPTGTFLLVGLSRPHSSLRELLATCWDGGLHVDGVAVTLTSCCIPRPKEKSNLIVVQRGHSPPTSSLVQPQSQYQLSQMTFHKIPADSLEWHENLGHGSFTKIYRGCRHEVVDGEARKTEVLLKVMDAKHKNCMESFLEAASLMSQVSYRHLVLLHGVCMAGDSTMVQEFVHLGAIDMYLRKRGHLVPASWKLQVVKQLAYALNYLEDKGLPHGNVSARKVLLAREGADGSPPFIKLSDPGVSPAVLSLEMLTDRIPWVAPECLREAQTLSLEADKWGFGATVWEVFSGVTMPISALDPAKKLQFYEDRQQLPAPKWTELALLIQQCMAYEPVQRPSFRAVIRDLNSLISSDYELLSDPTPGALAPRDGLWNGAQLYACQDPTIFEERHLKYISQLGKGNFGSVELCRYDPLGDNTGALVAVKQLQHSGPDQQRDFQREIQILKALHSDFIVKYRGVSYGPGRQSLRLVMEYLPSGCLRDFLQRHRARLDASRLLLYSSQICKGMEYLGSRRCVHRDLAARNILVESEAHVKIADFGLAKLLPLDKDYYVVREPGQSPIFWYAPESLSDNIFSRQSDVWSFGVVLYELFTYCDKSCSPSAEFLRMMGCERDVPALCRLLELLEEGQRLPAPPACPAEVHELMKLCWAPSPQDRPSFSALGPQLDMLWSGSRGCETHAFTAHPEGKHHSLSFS

[1] = tested on: Porcine Trabecular Meshwork cells (PTM); test: PTM-HTM assay, actin fiber length in PTM cells; assay type: cell-based; details: Sus scrofa, read-out: PTM
Protocol: Porcine Trabecular Meshwork cells (PTM) were isolated from freshly obtained enucleated porcine eyes. Immortalized Human Trabecular Meshwork cells (TM-1) were obtained through a kind gift from Donna Peters in the Department of Ophthalmology and Visual Sciences at the University of Wisconsin. Cells were plated onto fibronectin coated glass-bottom 96-well plates and allowed to attach overnight. Media was removed and replaced with test compound in media with 1% fetal bovine serum and incubated for various times. After incubation, cells were formaldehyde fixed, triton solubilized, and stained. PTM cells were stained with Alexa Fluor®488 phalloidin (F-actin) and Hoechst 33342 (nuclei). TM-1 cells were stained with anti-paxillin followed by Alexa Fluor®488 goat-anti-mouse IgG (focal adhesions) and Hoechst 33342 (nuclei). All staining reagents were obtained through Invitrogen. Images were collected on an INCell 2200 imager with a 20× objective. The actin fiber length and total area of focal adhesions were analyzed using custom algorithms developed in the INCell Developer Toolbox, v1.9.3. Data collected were converted to percent of control (untreated cells). Curves were fit to data in GraphPad Prizm using sigmoidal dose-response and constraining top and bottom to 100% and 0%, respectively.

IKKb = biological target: T2, IKKb (Homo sapiens, UniProt O14920); test: IKKb kinase activity; assay type: biochemical; details: Table 17
T2 sequence (O14920 1-756): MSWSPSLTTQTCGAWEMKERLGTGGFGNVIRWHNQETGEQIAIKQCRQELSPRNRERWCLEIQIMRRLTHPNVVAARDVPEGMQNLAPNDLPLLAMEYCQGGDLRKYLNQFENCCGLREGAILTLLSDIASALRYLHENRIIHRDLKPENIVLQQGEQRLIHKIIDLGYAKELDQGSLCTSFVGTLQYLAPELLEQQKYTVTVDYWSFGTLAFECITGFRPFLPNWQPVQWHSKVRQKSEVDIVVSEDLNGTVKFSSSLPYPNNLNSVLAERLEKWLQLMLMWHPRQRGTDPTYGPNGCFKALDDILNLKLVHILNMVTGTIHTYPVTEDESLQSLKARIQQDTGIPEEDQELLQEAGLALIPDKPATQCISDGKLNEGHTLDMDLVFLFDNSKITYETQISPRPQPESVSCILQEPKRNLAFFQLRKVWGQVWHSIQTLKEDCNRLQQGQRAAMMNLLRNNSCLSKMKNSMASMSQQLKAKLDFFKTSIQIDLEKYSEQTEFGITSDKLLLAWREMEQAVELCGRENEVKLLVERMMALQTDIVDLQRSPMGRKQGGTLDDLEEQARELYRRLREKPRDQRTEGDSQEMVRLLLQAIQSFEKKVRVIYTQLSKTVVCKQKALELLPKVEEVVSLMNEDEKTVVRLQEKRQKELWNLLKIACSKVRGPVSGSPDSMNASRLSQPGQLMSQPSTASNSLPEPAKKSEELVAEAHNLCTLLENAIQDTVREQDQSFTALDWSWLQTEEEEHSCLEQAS

ROCK2 = ROCK2 (Homo sapiens, UniProt O75116); test: biochemical
ROCK2, sequence (O75116 whole entry, species assumed): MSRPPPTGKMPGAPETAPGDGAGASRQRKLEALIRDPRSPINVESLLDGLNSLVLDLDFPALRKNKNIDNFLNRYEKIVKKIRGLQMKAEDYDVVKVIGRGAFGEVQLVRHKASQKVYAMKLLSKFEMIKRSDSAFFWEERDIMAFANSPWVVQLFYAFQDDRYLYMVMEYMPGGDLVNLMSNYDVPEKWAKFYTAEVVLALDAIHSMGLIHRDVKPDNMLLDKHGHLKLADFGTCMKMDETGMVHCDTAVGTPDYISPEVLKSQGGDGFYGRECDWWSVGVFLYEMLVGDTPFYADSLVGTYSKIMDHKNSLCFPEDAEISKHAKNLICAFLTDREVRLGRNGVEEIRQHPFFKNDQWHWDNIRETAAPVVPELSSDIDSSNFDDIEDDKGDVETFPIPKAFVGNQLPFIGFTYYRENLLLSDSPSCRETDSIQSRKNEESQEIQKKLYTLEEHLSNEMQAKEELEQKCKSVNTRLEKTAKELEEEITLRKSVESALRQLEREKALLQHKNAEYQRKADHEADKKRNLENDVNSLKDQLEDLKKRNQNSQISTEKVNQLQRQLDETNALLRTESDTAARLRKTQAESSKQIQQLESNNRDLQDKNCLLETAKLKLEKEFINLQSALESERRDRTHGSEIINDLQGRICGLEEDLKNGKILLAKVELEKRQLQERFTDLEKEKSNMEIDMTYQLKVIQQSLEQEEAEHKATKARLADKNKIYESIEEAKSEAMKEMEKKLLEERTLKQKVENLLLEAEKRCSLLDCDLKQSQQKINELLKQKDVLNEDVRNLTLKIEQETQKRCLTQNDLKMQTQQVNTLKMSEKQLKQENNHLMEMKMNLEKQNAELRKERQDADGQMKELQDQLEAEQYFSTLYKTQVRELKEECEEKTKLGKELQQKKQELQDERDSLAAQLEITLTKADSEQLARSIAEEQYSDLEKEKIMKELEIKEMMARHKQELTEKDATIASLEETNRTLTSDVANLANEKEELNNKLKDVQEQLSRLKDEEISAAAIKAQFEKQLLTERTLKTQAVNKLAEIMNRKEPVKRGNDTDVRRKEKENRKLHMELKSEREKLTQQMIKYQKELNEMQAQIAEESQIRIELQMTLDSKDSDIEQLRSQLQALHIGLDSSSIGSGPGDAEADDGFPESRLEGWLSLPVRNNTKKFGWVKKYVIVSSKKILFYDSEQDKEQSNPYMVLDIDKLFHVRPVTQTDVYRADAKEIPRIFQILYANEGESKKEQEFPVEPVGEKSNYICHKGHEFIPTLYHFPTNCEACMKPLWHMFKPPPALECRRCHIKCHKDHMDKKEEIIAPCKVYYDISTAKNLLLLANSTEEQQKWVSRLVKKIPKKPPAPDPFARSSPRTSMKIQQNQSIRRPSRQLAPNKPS

ROCK1 = ROCK1 (Homo sapiens, UniProt Q13464); test: ROCK kinase inhibition assay, ROCK1 enzyme; assay type: biochemical;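 note: kinase reaction with 0.5 µM final ATP, 75 min at room temperature, remaining ATP read by luminescence, percent of DMSO-only control minus background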
ROCK1, sequence (Q13464 whole entry, species assumed): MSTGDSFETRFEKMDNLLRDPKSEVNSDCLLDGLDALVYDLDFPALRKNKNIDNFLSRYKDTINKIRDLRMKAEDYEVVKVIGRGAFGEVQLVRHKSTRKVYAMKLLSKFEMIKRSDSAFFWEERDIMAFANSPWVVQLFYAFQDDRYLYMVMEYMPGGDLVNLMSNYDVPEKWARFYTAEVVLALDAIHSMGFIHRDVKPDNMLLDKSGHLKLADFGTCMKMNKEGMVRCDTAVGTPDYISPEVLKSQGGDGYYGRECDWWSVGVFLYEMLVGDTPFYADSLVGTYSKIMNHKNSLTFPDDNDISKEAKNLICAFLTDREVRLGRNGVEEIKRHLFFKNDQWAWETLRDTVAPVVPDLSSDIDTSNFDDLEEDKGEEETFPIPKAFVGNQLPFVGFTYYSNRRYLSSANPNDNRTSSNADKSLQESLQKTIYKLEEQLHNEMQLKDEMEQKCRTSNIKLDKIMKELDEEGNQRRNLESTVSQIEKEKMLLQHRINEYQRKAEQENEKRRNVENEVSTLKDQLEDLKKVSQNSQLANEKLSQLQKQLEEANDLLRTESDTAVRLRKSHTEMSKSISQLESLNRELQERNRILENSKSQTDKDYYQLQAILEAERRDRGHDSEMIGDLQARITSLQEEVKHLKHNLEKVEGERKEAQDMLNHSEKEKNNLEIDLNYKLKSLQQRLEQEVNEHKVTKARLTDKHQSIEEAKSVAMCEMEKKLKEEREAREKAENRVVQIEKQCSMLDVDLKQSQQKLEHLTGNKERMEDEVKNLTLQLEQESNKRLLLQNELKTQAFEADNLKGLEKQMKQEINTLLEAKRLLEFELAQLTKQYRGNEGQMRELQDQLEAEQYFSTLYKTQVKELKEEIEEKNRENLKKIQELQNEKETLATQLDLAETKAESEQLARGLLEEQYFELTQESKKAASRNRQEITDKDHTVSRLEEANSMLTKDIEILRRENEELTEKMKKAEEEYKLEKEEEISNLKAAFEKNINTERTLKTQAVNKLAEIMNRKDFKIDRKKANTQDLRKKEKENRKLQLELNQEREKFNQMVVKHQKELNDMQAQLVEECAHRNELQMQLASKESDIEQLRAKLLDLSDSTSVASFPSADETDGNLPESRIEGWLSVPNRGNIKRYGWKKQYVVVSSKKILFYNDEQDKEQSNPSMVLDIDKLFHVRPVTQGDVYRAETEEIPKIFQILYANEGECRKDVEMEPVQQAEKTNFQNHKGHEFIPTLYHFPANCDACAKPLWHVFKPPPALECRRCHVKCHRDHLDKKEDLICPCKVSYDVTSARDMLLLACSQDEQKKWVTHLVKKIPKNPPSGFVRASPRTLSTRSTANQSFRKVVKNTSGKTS

JAK2 = JAK2 (Homo sapiens, UniProt O60674); test: JAK kinase assay, JAK2 enzyme; assay type: biochemical;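 note: JAK2 kinase reaction run 75 min at room temperature, leftover ATP read by Kinase-Glo luminescence, 11-point dilution series in 2.5% DMSO, percent of inhibitor-free DMSO control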
JAK2, sequence (O60674 whole entry, species assumed, canonical isoform): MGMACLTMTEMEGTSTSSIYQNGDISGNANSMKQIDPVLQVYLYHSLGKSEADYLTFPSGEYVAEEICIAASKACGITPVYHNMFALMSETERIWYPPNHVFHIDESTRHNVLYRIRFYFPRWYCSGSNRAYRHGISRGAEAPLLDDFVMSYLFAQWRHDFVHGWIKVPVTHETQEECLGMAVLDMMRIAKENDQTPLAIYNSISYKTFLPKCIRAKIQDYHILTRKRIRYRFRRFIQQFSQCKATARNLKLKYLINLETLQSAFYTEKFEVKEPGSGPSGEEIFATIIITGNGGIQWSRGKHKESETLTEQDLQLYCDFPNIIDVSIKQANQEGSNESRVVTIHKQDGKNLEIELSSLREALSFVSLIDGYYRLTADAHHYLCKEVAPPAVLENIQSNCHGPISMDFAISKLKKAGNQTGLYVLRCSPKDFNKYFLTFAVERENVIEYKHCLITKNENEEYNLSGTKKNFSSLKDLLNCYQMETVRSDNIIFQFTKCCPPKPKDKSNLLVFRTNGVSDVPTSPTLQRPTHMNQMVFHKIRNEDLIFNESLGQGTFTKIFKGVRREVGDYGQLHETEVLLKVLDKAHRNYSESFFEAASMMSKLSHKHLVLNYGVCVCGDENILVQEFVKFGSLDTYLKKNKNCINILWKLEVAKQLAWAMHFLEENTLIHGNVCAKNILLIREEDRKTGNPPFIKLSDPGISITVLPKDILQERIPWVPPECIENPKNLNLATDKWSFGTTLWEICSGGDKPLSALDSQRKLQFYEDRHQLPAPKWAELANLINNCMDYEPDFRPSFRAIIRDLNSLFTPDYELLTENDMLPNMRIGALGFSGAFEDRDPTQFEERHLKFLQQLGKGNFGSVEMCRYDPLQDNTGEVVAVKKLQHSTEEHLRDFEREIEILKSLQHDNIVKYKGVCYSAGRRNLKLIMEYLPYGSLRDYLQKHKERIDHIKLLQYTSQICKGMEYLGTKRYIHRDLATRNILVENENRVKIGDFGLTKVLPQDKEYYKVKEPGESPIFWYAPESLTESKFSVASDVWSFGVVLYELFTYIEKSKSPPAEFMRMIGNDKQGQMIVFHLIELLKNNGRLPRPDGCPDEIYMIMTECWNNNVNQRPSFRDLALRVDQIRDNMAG

Rho Kinase = test: ROCK kinase inhibition assay (Rho Kinase Activity, isoform not given); assay type: biochemical; details: Table 15, mostly given as ranges
Protocol: All compounds were initially prepared as 10 mM stocks in anhydrous dimethylsulfoxide (DMSO). A 20 μl aliquot of the 10 mM solutions was transferred to individual wells in column 1 of a 96-well polypropylene microtiter plate (Corning #3363) and diluted with DMSO to give a final compound concentration of 4 mM. Test compounds were then serially diluted 1:5 in DMSO for an 11-point concentration response and further diluted in the assay buffer bringing all compound concentrations to a final range of 100 μM to […] in 2.5% DMSO. The assay was performed in white 96-well, flat-bottom, half-area, non-binding assay plate (Corning #3642) in assay buffer consisting of 20 mM HEPES (pH 7.5), 10 mM MgCl2*6H2O, 100 μM sodium orthovanadate, 0.05% CHAPS and 0.1% bovine serum albumin. A 10 μL aliquot of compound from each well of the intermediate dilution plate and 20 μL of a 2× substrate/enzyme solution containing acceptor substrate (800 nM RSK2 peptide […] (SEQ ID NO: 1)), ROCK2 enzyme (10 nM), or ROCK1 enzyme, and 1,4-Dithiothreitol (DTT, 2 uM) were added to all wells. The reaction was initiated by the addition of 10 μL of 4× stock solution ATP (2 μM). Reactions were thoroughly mixed manually, covered and allowed to incubate at room temperature for 75 min. Protein kinase activity was quantitated using Promega's KINASE-GLO™ luminescent Kinase Assay Kit according to the manufacturer's directions. ATP concentrations remaining in Test wells following the termination of the enzymatic reaction were compared against control wells containing equivalent amounts of DMSO containing no inhibitor (CTRL). […] Percent of Control (POC) values were determined for each concentration of compound tested according to the equation: POC=((Test well value−BKG)/(CTRL−BKG))*100
IC50 values were converted to K; […]

O=C(Nc1ccc2cnccc2c1)[C@@H]1C[C@H]1c1ccc(S(=O)(=O)Nc2ccccn2)cc1 (racemic)
pKi (JAK3; Table 17, read-out: JAK3): 7.92

O=C(Nc1ccc2cncc(Cl)c2c1)C1CC1c1ccc(S(=O)(=O)Nc2ccccn2)cc1 (racemic) [rel-N-(4-chloroisoquinolin-6-yl)-2-(4-(N-(pyridin-2-yl)sulfamoyl)phenyl)cyclopropane-1-carboxamide]
pIC50 ([1]; Table 17, porcine trabecular meshwork cells): 6.64
pKi (IKKb): 8.05

O=C(Nc1ccc2cncc(Cl)c2c1)[C@@H]1C[C@H]1c1ccc(S(=O)(=O)NC[C@@H]2CCCNC2)cc1 (relative stereo) [(rel)-(1R,2R)-N-(4-chloroisoquinolin-6-yl)-2-(4-(N-(((R)-piperidin-3-yl)methyl)sulfamoyl)phenyl)cyclopropane-1-carboxamide dihydrochloride]
pKi (JAK3; Table 17, read-out: JAK3): 6.80

O=C(Nc1ccc2cnccc2c1)[C@@H]1C[C@H]1c1ccc(S(=O)(=O)NC[C@@H]2CCCNC2)cc1 (relative stereo) [(rel)-(1R,2R)-N-(isoquinolin-6-yl)-2-(4-(N-(((R)-piperidin-3-yl)methyl)sulfamoyl)phenyl) cyclopropane-1-carboxamide dihydrochloride]
pKi (JAK3; Table 17, read-out: JAK3): 5.94
pKi (ROCK2; ROCK2, Table 17): 8.40
pKi (ROCK1; ROCK1, Table 17): 8.40

O=C(Nc1ccc2cnccc2c1)[C@@H]1C[C@H]1c1ccc(I)cc1 (relative stereo) [drawing 670, (rel)-(1R,2R)-2-(4-iodophenyl)-N-(isoquinolin-6-yl)cyclopropane-1-carboxamide]
pKi (JAK2; Table 17, read-out: JAK2): 6.19
pKi (ROCK2; ROCK2, Table 17): 6.76
pKi (ROCK1; ROCK1, Table 17): 6.57

O=C(Nc1ccc2cnccc2c1)[C@@H]1C[C@H]1c1ccc(S(=O)(=O)Nc2ccccn2)cc1 (single isomer, unassigned) [Example E266]
pKi (JAK3; Table 16, read-out: JAK3): 7.92
pKi (ROCK1; ROCK1, Table 16): 8.05

O=C(Nc1ccc2cnccc2c1)[C@@H]1C[C@H]1c1ccc(S(=O)(=O)Nc2ccccn2)cc1 (single isomer, unassigned) [Example E267]
pKi (JAK3; Table 16, read-out: JAK3): 8.24

O=C(Nc1ccc2cnccc2c1)[C@@H]1C[C@H]1c1ccc(S(=O)(=O)Nc2ccccn2)cc1 [(1R,2R)-N-(isoquinolin-6-yl)-2-(4-(N-(pyridin-2-yl)sulfamoyl)phenyl) cyclopropane-1-carboxamide]
pKi (JAK3; Table 17, read-out: JAK3): 8.37
pIC50 [1]: 7.21

O=C(NCc1ccccn1)c1ccc(C2CC(=O)N(c3ccc4cnccc4c3)C2)cc1 (centres unmarked) [Example E233]
pKi (JAK3; Table 15, in brackets in the activity cell, read-out: JAK3 activity): 5.42 to 5.47
pKi (JAK2; Table 15, in brackets in the activity cell, read-out: JAK2 activity): 4.87 to 5.24
pKi (Rho Kinase): 5.08 to 5.36

O=C(Nc1ccc2cnccc2c1)[C@@H]1C[C@H]1c1ccc(S(=O)(=O)NC[C@H]2CCCNC2)cc1 [Example E272]
pKi (ROCK2; ROCK2, Table 16): 8.30
pKi (ROCK1; ROCK1, Table 16): 8.30

O=C(Nc1ccc2cnccc2c1)[C@@H]1C[C@H]1c1ccc(S(=O)(=O)NC[C@@H]2CCCNC2)cc1 [Example E273]
pKi (JAK3; Table 16, read-out: JAK3): 5.94
pKi (ROCK2; ROCK2, Table 16): 8.40
pKi (ROCK1; ROCK1, Table 16): 8.40

O=C(Nc1ccc2cncc(Cl)c2c1)[C@@H]1C[C@H]1c1ccc(S(=O)(=O)NC[C@@H]2CCCNC2)cc1 [Example E274]
pKi (JAK3; Table 16, read-out: JAK3): 6.80

O=C(Nc1ccc2cnccc2c1)[C@@H]1C[C@H]1c1ccc(S(=O)(=O)NC2CCNCC2)cc1 [Example E275]
pKi (ROCK2; ROCK2, Table 16): 8.15
pKi (ROCK1; ROCK1, Table 16): 8.09

O=C(Nc1ccc2cnccc2c1)[C@@H]1C[C@H]1c1ccc(S(=O)(=O)N2CCNCC2)cc1 [Example E276]
pKi (ROCK2; ROCK2, Table 16): 7.51
pKi (ROCK1; ROCK1, Table 16): 7.32

O=C(Nc1ccc2cnccc2c1)[C@@H]1C[C@H]1c1ccc(I)cc1 [Example E277]
pKi (JAK2; Table 16, read-out: JAK2): 6.19
pKi (ROCK2; ROCK2, Table 16): 6.76
pKi (ROCK1; ROCK1, Table 16): 6.57

O=C(Nc1ccc2cnccc2c1)[C@@H]1C[C@H]1c1ccc(F)c(S(=O)(=O)Nc2ccccn2)c1 [Example E280]
pKi (JAK3; Table 16, read-out: JAK3): 5.97
pKi (JAK2; Table 16, read-out: JAK2): 5.85
pKi (ROCK2; ROCK2, Table 16): 7.90
pKi (ROCK1; ROCK1, Table 16): 7.82

O=C(Nc1ccc2cnccc2c1)[C@@H]1C[C@H]1c1ccc(F)c(S(=O)(=O)Nc2ccccc2)c1 [Example E281]
pKi (JAK3; Table 16, read-out: JAK3): 5.12
pKi (JAK2; Table 16, read-out: JAK2): 5.52
pKi (ROCK2; ROCK2, Table 16): 6.62
pKi (ROCK1; ROCK1, Table 16): 6.82

O=C(Nc1ccc2cnccc2c1)[C@@H]1C[C@H]1c1ccc(S(=O)(=O)Nc2cccnc2)cc1 [drawing 658]
pKi (ROCK2; ROCK2, Table 17): 7.62
pKi (ROCK1; ROCK1, Table 17): 7.07

O=C(Nc1ccc2cncc(Cl)c2c1)[C@@H]1C[C@H]1c1ccc(S(=O)(=O)NC[C@@H]2CCCNC2)cc1 [drawing 666]
pKi (JAK3; Table 17, read-out: JAK3): 6.80

O=C(Nc1ccc2cnccc2c1)[C@@H]1C[C@H]1c1ccc(F)c(S(=O)(=O)Nc2ccccn2)c1 [drawing 673]
pKi (JAK3; Table 17, read-out: JAK3): 5.97
pKi (JAK2; Table 17, read-out: JAK2): 5.85
pKi (ROCK2; ROCK2, Table 17): 7.90
pKi (ROCK1; ROCK1, Table 17): 7.82

O=C(Nc1ccc2cnccc2c1)[C@@H]1C[C@H]1c1ccc(F)c(S(=O)(=O)Nc2ccccc2)c1 [drawing 674]
pKi (JAK3; Table 17, read-out: JAK3): 5.12
pKi (JAK2; Table 17, read-out: JAK2): 5.52
pKi (ROCK2; ROCK2, Table 17): 6.62
pKi (ROCK1; ROCK1, Table 17): 6.82
